Experimental data taken from the supplement of paper PMC10307832.

Columns and labels:
Assay in all cases: relative viability (nuclei count vs DMSO), 5 days (fraction); higher = more cells survive
[1] = compound: Cc1ccc2nc(NCCN)c3ncc(C)n3c2c1 + Cc1nc(NC(=O)N2CCC[C@H]2C(N)=O)sc1-c1ccnc(C(C)(C)C(F)(F)F)c1 [Alpelisib] (partner 2 µM)
Method in brief: (§1)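 Dosing by pin tool came one day after lung cancer cell lines were seeded in 1536-well plates, using either one drug or a fixed anchor-drug dose plus five library-drug doses (not always all listed) in √10 steps. After 5 days, nuclei were counted on 4× images. Relative viability is treated-well nuclei count divided by vehicle-well nuclei count, and values are medians of duplicate plates.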

[2] = compound: Cc1ccc2nc(NCCN)c3ncc(C)n3c2c1 + Cc1nc(Nc2ncc(C(=O)Nc3c(C)cccc3Cl)s2)cc(N2CCN(CCO)CC2)n1 [Dasatinib] (partner 0.075 µM)
Method in brief: as §1

Salubrinal + Foretinib = compound: O=C(/C=C/c1ccccc1)NC(NC(=S)Nc1cccc2cccnc12)C(Cl)(Cl)Cl [Salubrinal] + COc1cc2c(Oc3ccc(NC(=O)C4(C(=O)Nc5ccc(F)cc5)CC4)cc3F)ccnc2cc1OCCCN1CCOCC1 [Foretinib] (partner 0.25 µM)
Method in brief: as §1

Salubrinal + Crizotinib = compound: O=C(/C=C/c1ccccc1)NC(NC(=S)Nc1cccc2cccnc12)C(Cl)(Cl)Cl [Salubrinal] + C[C@@H](Oc1cc(-c2cnn(C3CCNCC3)c2)cnc1N)c1c(Cl)ccc(F)c1Cl [Crizotinib] (partner 1 µM)
Method in brief: as §1

Cell Line	relative viability ([1]; first compound 0.04 µM)	relative viability ([1]; first compound 0.1265 µM)	relative viability ([1]; first compound 0.4 µM)	relative viability ([1]; first compound 1.265 µM)	relative viability ([1]; first compound 4 µM)	relative viability ([2]; first compound 0.04 µM)	relative viability ([2]; first compound 0.1265 µM)	relative viability ([2]; first compound 0.4 µM)	relative viability ([2]; first compound 1.265 µM)	relative viability ([2]; first compound 4 µM)	relative viability (Salubrinal + Foretinib; first compound 0.08 µM)	relative viability (Salubrinal + Foretinib; first compound 0.253 µM)	relative viability (Salubrinal + Foretinib; first compound 0.8 µM)	relative viability (Salubrinal + Foretinib; first compound 2.53 µM)	relative viability (Salubrinal + Foretinib; first compound 8 µM)	relative viability (Salubrinal + Crizotinib; first compound 0.08 µM)	relative viability (Salubrinal + Crizotinib; first compound 0.253 µM)	relative viability (Salubrinal + Crizotinib; first compound 0.8 µM)	relative viability (Salubrinal + Crizotinib; first compound 2.53 µM)	relative viability (Salubrinal + Crizotinib; first compound 8 µM)
NCI-H23	0.893	0.572	0.797	0.614	0.696	0.934	0.798	0.73	0.779	0.728	1.13	0.999	1.08	0.894	0.959	0.559	0.391	0.621	0.461	0.354
NCI-H322M	0.948	0.755	0.798	0.641	0.766	0.251	0.267	0.259	0.269	0.263	1.07	1.07	0.969	0.832	0.856	0.898	0.901	1.08	0.872	0.944
NCI-H358	0.844	0.835	0.902	0.952	0.626	0.177	0.157	0.182	0.154	0.22	0.783	0.597	0.718	0.71	0.606	0.559	0.553	0.506	0.51	0.478
NCI-H441	0.646	0.719	0.843	0.746	0.928	0.556	0.552	0.551	0.673	0.445	1.24	0.917	1.03	0.947	0.862	0.689	0.665	0.73	0.766	0.652
NCI-H460	0.54	0.495	0.476	0.382	0.374	0.448	0.546	0.613	0.499	0.468	1.15	0.987	0.975	1.09	0.914	1.18	0.891	0.843	0.909	0.541
NCI-H520	0.882	1.05	0.957	0.781	1.03	0.363	0.208	0.229	0.284	0.262	0.914	0.798	0.932	0.721	0.912	0.816	0.489	0.771	0.663	0.681
NCI-H596	0.56	0.46	0.446	0.491	0.452	0.677	0.645	0.524	0.524	0.648	0.949	1.17	0.809	0.799	0.701	1.07	0.901	1.07	1.02	1.05
NCI-H647	1.05	1.01	1.06	1.26	1	0.172	0.191	0.163	0.169	0.141	1.4	1.2	1.27	1.17	1.12	1.44	0.891	1	1.12	0.905
